Consider 6 compounds from US4762840A, “Pyrimido[2,1-b]benzothiazoles having antiallergic activity” (Roussel Uclaf, priority 1984, dated 1988).

The structures appear in SMILES notation. Bounds are passed on as bounds.

In general, IC50 refers to the concentration that gives 50% inhibition.

The test system of this assay is lungs. Description: Antigen-induced elevation of lung perfusion pressure (isolated perfused sensitized lung, ovalbumen). Also noted: species or system guinea pig (Dunkin Hartley). Conditions: Cavia porcellus; perfused lungs of ovalbumen-sensitized guinea pigs; compound in krebs fluid 30 minutes prior to second antigen dose (15 μg ovalbumen); at least four lungs per concentration; read-out: IC50 (inhibition of antigen induced broncho-constriction). Here is the method: Antigen-induced elevation of lung perfusion pressure
Male Dunkin Hartley guinea pigs (Porcellus) weighing between 450-700 g were used (four per test concentration) and were housed in cages. The animals were sensitized by two weekly exposures to 1% W/V aerosol ovalbumen. The animals were anaesthetized with 2.5 mg/kg diazepam i.p. and 1 ml/kg Hyponorm i.m. Following anaethesia, the animals were exsanguinated by severing both carotid arteries and the chest was opened and the lungs removed, split into two at the carina and both cannulated via the main lobar bronchus and connected to a perfusion system. The lungs were perfused with aerated krebs fluid (95% O2 :5% CO2) at 37° C. and 5 μg in 0.1 ml Ovalbumen was injected through an injection port proximal to each lung. Elevation of perfusion pressure by the antigen was recorded and sixty minutes later, 15 μg of ovalbumen were administered. The test compounds were added to the krebs fluid reservoir thirty minutes prior to the second antigen dose. For each weekly batch of animals used, control measurements were made without treatment (n=10 ). The second antigen response was expressed as a percentage of the first. For each test, at least four lungs from four different animals were used per concentration. The percentage inhibition of antigen induced broncho-constriction was calculated.
On to `CCCc1cc(=O)nc2sc3cc(C(C)C(=O)OCC)ccc3n12` (stereo not drawn) [Example 24, Ethyl α-methyl-2-oxo-4-n-propyl-2H-pyrimido[2,1-b]benzothiazole-8-acetate], for which the half-inhibitory concentration (IC50) is above 10 µM.

Take `COC(=O)Cc1ccc2c(c1)sc1nc(=O)cc(-c3ccccc3)n12` [Example 4, Methyl 2-oxo-4-phenyl-2H-pyrimido[2,1-b]benzothiazole-8-acetate]: the IC50 came out at 10 µM.

Take `CC(C(=O)OC1(C)CCCCC1)c1ccc2c(c1)sc1nc(=O)cc(-c3ccccc3)n12` (stereo not drawn) [Example 49, 1-Methylcyclohexyl α-methyl-2-oxo-4-phenyl-2H-pyrimido[2,1-b]benzothiazole-8-acetate]: the IC50 was 1 to 10 µM.

Take `CCOC(=O)C(C)c1ccc2c(c1)sc1nc(=O)cc(C3CCCCC3)n12` (stereo not drawn) [Example 31, Ethyl α-methyl-4-cyclohexyl-2-oxo-2H-pyrimido[2,1-b]benzothiazole-8-acetate]: the IC50 is below 10 µM.

Take `CC(C(=O)OCC(C)(C)C)c1ccc2c(c1)sc1nc(=O)cc(-c3ccccc3)n12` (stereo not drawn) [Example 43, 2,2-Dimethylpropyl α-methyl-4-phenyl-2-oxo-2H-pyrimido[2,1-b]benzothiazole-8-acetate]: the IC50 worked out at 0.1 µM.

As to `CCOC(=O)Cc1ccc2c(c1)sc1nc(=O)cc(-c3ccc(C)cc3)n12` [Example 13, Ethyl 4-(4-methylphenyl)-2-oxo-2H-pyrimido[2,1-b]benzothiazole-8-acetate], the IC50 is below 1 µM.
